The target in series [1] is T1, Nucleotide-binding oligomerization domain-containing protein 2 (Homo sapiens, UniProt Q9HC29). Briefly: Agonist activity at human NOD2 expressed in HEK-Blue cells assessed as induction of NF-kB transcriptional activity at 20 uM after 18 hrs by SEAP reporter gene assay. It is filed as cell-based. For orientation: Reporter assays use an easily measured gene product as a stand-in for the process of interest.

The target of series [2] is T2, Nucleotide-binding oligomerization domain-containing protein 1 (Homo sapiens) (UniProt Q9Y239).
T2 sequence (whole entry): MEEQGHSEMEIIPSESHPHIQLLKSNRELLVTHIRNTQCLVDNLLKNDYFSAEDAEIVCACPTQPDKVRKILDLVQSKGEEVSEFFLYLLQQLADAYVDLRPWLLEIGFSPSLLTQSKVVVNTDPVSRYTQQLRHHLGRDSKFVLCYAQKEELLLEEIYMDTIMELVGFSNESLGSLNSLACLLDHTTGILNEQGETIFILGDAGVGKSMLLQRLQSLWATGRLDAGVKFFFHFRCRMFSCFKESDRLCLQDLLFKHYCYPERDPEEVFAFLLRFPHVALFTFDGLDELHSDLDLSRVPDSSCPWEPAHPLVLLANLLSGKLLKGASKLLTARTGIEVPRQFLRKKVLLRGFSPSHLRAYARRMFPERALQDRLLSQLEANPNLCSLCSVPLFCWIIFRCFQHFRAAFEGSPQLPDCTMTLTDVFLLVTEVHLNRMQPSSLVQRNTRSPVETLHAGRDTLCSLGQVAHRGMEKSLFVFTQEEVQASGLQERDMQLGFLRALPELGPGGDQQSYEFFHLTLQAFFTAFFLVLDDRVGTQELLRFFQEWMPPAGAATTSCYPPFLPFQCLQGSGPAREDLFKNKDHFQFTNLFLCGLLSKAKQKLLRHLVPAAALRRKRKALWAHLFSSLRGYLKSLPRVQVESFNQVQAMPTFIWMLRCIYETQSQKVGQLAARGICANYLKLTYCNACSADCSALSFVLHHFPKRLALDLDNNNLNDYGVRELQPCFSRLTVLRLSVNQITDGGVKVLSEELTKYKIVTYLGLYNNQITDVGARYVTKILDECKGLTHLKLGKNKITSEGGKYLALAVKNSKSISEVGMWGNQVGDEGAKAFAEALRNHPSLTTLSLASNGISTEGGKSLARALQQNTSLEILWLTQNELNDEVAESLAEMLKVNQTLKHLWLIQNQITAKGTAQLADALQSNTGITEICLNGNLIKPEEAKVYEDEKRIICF
Briefly: Agonist activity at human NOD1 expressed in HEK-Blue cells assessed as induction of NF-kB transcriptional activity at 20 uM after 18 hrs by SEAP reporter gene assay. It is filed as cell-based.

Series [3] can be described thus: Cytotoxicity against HEK-Blue cells over-expressing NOD2 assessed as residual metabolic activity at 20 uM after 18 hrs by CellTiter 96 aqueous one solution cell proliferation assay relative to control. The format is ADME, cell-based. Conditions: human, read-out: Activity.
Series [4] concerns the target T1, Nucleotide-binding oligomerization domain-containing protein 2. Briefly: Agonist activity at human NOD2 expressed in HEK-Blue cells assessed as induction of NF-kB transcriptional activity at 2 uM after 18 hrs in presence of NOD2 antagonist GSK-669 by SEAP reporter gene assay. The format is cell-based.
For series [5] the target is unchanged. The series is described as follows: Agonist activity at human NOD2 expressed in HEK-Blue cells assessed as induction of NF-kB transcriptional activity after 18 hrs by SEAP reporter gene assay. It is filed as cell-based.
Series [6] shares this target. The series is described as follows: Agonist activity at human NOD2 expressed in HEK-Blue cells assessed as induction of NF-kB transcriptional activity at 2 uM after 18 hrs by SEAP reporter gene assay relative to control. It is filed as cell-based.

This note sets out measurements from ChEMBL document CHEMBL4020846 (J Med Chem, 2018).

Active and inactive are the calls of the source. The calls are words filed in the database; no cut-off is given here.

T1 sequence (Q9HC29 whole entry, the tested form may be a part): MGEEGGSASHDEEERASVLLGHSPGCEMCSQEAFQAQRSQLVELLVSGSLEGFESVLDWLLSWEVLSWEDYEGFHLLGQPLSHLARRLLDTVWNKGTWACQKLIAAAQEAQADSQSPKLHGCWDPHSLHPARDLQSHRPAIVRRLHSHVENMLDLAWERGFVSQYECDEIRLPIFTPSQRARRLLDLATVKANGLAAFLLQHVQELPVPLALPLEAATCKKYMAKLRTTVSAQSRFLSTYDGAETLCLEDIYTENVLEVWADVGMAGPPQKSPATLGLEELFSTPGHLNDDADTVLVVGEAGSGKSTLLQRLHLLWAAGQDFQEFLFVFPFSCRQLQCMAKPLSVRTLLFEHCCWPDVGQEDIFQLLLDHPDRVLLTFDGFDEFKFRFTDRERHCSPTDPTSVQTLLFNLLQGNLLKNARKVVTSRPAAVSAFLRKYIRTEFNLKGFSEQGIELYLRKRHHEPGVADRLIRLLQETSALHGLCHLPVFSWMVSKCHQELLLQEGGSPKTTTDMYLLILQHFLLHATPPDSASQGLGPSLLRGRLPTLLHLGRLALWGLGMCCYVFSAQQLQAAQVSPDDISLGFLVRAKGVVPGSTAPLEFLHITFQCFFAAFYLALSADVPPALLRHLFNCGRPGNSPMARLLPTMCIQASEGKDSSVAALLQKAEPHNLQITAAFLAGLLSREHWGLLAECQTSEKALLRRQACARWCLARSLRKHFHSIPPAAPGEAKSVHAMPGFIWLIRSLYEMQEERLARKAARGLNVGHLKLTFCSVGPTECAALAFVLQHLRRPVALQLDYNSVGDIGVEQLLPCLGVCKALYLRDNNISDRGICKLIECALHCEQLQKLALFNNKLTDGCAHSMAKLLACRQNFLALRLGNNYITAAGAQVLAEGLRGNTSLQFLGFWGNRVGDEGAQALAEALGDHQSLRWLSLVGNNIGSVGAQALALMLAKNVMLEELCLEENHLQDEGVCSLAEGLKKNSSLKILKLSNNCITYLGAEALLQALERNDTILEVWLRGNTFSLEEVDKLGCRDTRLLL

On to `CCOC(=O)C1CCN(C(=O)[C@@H](NC(=O)CNC(=O)/C=C/c2ccc(O)c(OC)c2)C(C)C)CC1`, for which, in series [1], the result was Active. For the same compound, in series [2], the outcome was inactive. Further, the viability at 18 h, 20 µM in series [3] was > 80%.
The matching figures for `COC(=O)c1cc(NC(=O)[C@@H](NC(=O)CNC(=O)/C=C/c2ccc(O)c(OC)c2)C(C)C)cc(C(=O)OC)c1`: “Active”, “inactive” and > 80%.
By EC50 is commonly meant the concentration that produces a half-maximal response. Regarding `CCOC(=O)CC[C@@H](NC(=O)[C@@H](NC(=O)CNC(=O)C1CC1c1ccc(F)c(F)c1)C(C)C)C(=O)OCC` (stereo partly specified), in series [1], the outcome was Active. Besides, the result in series [2] was inactive. For the same compound, the outcome in series [4] was inactive. In series [5], the Activity entry is “Dose-dependent effect” and the EC50 was 247 nM. Besides, the fold change (FC) in series [6] came out at 5.8. The viability at 18 h, 20 µM in series [3] is > 80%.
Take `CCOC(=O)c1cc(O)ccc1NC(=O)[C@@H](NC(=O)CNC(=O)/C=C/c1ccc(O)c(OC)c1)C(C)C`: in series [1], the result was Active. In addition, in series [2], the result was inactive. In addition, the viability at 18 h, 20 µM in series [3] is > 80%.
As to `CCOC(=O)CC[C@@H](NC(=O)[C@H](Cc1ccccc1)NC(=O)CNC(=O)/C=C/c1ccccc1)C(=O)OCC`, the outcome in series [1] was Active. Also, the outcome in series [2] and in series [4] was inactive. Further, the Activity entry in series [5] is “Dose-dependent effect”. For the same compound, the EC50 in series [5] worked out at 388 nM. The fold change (FC) in series [6] came to 5.3. For the same compound, the viability at 18 h, 20 µM in series [3] was > 80%.
`CCOC(=O)CC[C@@H](NC(=O)[C@H](Cc1ccccc1)NC(=O)CNC(=O)/C=C/c1ccc(O)c(OC)c1)C(=O)OCC`: in series [1], the result was Active. Besides, in series [2], the outcome was inactive. In series [4], the result was inactive. Also, in series [5], the Activity entry is “Dose-dependent effect” and the EC50 was determined as 121 nM. The fold change (FC) in series [6] turned out to be 5.7. In addition, in series [3], the viability at 18 h, 20 µM is > 80%.
`CCOC(=O)CC[C@@H](NC(=O)[C@@H](NC(=O)CNC(=O)/C=C/c1ccccc1)C(C)C)C(=O)OCC`: in series [1], the result was Active. The result in series [2] was inactive. For the same compound, in series [4], the outcome was inactive. Moreover, in series [5], the Activity result is “Dose-dependent effect” and the EC50 was 223 nM. In series [6], the fold change (FC) came out at 5.7. For the same compound, the viability at 18 h, 20 µM in series [3] is > 80%.
On to `COC(=O)c1ccc(C(=O)OC)c(NC(=O)[C@@H](NC(=O)CNC(=O)/C=C/c2ccc(O)c(OC)c2)C(C)C)c1`, for which, in series [1], the result was Active. For the same compound, the outcome in series [2] was inactive. In addition, the viability at 18 h, 20 µM in series [3] was > 80%.
As for `CCOC(=O)CC[C@@H](NC(=O)[C@H](Cc1ccccc1)NC(=O)CNC(=O)/C=C/c1ccc(F)c(F)c1)C(=O)OCC`, in series [1], the result was Active. For the same compound, the outcome in series [2] was inactive. Moreover, the result in series [4] was inactive. Further, in series [5], the Activity entry is “Dose-dependent effect” and the EC50 is 172 nM. The fold change (FC) in series [6] amounted to 5.4. The viability at 18 h, 20 µM in series [3] was > 80%.
For the compound `CCOC(=O)CC[C@@H](NC(=O)[C@@H](NC(=O)CNC(=O)/C=C/c1ccc(F)c(F)c1)C(C)C)C(=O)OCC`, in series [1], the result was Active. The outcome in series [2] and in series [4] was inactive. The EC50 in series [5] amounted to 172 nM. In addition, in series [6], the fold change (FC) was 5.6. Also, the viability at 18 h, 20 µM in series [3] was > 80%.
As for `CCOC(=O)CC[C@@H](NC(=O)[C@H](Cc1ccccc1)NC(=O)CNC(=O)c1cc2ccc(-c3ccccc3)cc2[nH]1)C(=O)OCC`, the outcome in series [1] was Active. Further, the result in series [2] and in series [4] was inactive. Moreover, the Activity result in series [5] is “Dose-dependent effect”. The EC50 in series [5] was found to be 777 nM. In addition, in series [6], the fold change (FC) came out at 4.8. The viability at 18 h, 20 µM in series [3] was > 80%.
On to `CCOC(=O)CC[C@@H](NC(=O)[C@H](C)NC(=O)CNC(=O)/C=C/c1ccc(O)c(OC)c1)C(=O)OCC`, for which the result in series [1] was Active. The outcome in series [2] and in series [4] was inactive. Also, the EC50 in series [5] amounted to 2790 nM. In addition, the fold change (FC) in series [6] came to 4.5. Moreover, the viability at 18 h, 20 µM in series [3] was > 80%.
`CCOC(=O)CC[C@@H](NC(=O)[C@H](Cc1ccccc1)NC(=O)CNC(=O)[C@@H]1C[C@H]1c1ccccc1)C(=O)OCC`: in series [1], the result was Active. Moreover, the outcome in series [2] was inactive. Also, the result in series [4] was inactive. In series [5], the Activity result is “Dose-dependent effect” and the EC50 amounted to 472 nM. For the same compound, the fold change (FC) in series [6] came out at 5.3. Besides, in series [3], the viability at 18 h, 20 µM is > 80%.
For the compound `CCOC(=O)[C@H]1CCCC[C@@H]1NC(=O)[C@@H](NC(=O)CNC(=O)/C=C/c1ccc(O)c(OC)c1)C(C)C`, the result in series [1] was Active. For the same compound, in series [2], the result was inactive. Moreover, in series [3], the viability at 18 h, 20 µM is > 80%.
Consider `CCOC(=O)CC[C@@H](NC(=O)[C@@H](NC(=O)CNC(=O)c1cc2ccc(-c3ccccc3)cc2[nH]1)C(C)C)C(=O)OCC`, for which the outcome in series [1] was Active. Also, the result in series [2] and in series [4] was inactive. The fold change (FC) in series [6] turned out to be 3.9. Besides, the viability at 18 h, 20 µM in series [3] is > 80%.
As for `CCOC(=O)[C@@H]1CCCC[C@@H]1NC(=O)[C@@H](NC(=O)CNC(=O)/C=C/c1ccc(O)c(OC)c1)C(C)C`, the outcome in series [1] was Active. The outcome in series [2] was inactive. The viability at 18 h, 20 µM in series [3] was > 80%.
Turning to `CCOC(=O)CC[C@@H](NC(=O)[C@@H](NC(=O)CNC(=O)[C@@H]1C[C@H]1c1ccccc1)C(C)C)C(=O)OCC`, the result in series [1] was Active. For the same compound, the result in series [2] and in series [4] was inactive. The fold change (FC) in series [6] was 4.4. Moreover, the viability at 18 h, 20 µM in series [3] is > 80%.
Regarding `CCOC(=O)CC[C@@H](NC(=O)[C@H](Cc1ccccc1)NC(=O)CNC(=O)C1CC1c1ccc(F)c(F)c1)C(=O)OCC` (stereo partly specified), the result in series [1] was Active. Further, the result in series [2] was inactive. Moreover, the outcome in series [4] was inactive. In addition, in series [5], the Activity entry was “Dose-dependent effect” and the EC50 stood at 276 nM. Besides, the fold change (FC) in series [6] is 5.2. The viability at 18 h, 20 µM in series [3] is > 80%.
